Like-named read-outs stand apart in the source and are kept apart here.
Target: T1, EBP-Ig (N-terminal 225 amino acids of the human EPO receptor joined to an Ig heavy chain) (Homo sapiens, UniProt P19235)
T1 construct: Ig heavy chain (fusion partner); made in house; host or cells: NSO cells (secreted into conditioned media)
T1 sequence (P19235 25-250 limits assumed): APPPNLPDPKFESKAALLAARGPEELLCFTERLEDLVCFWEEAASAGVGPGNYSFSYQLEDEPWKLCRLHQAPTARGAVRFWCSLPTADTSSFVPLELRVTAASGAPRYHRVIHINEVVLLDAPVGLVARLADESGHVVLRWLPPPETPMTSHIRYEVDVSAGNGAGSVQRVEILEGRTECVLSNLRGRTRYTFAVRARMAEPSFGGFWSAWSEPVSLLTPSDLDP
Test: Inhibition of [125I]EPO binding to immobilized EBP-Ig (EPO binding protein-Ig), scintillation Flash plate competition assay
Source text: The interaction of biotin and streptavidin is frequently employed to capture and effectively immobilize reagents useful in assay protocols and has been employed here as a simple method to capture and immobilize EBP-Ig. EBP-Ig is initially randomly modified with an amine reactive derivative of biotin to produce biotinylated-EBP-Ig. Use of streptavidin coated plates allows the capture of the biotinylated EBP-Ig on the surface of a scintillant impregnated coated well (Flash plates, NEN-DuPont). […] The amount of light produced was quantified to estimate the amount of ligand binding. The specific assay format was suitable for the multi-well plate capacity of a Packard TopCount Microplate Scintillation counter.
Biotinylated EBP-Ig was prepared as follows. EBP-Ig (3 mL, OD280 2.9) was exchanged into 50 mM sodium bicarbonate, pH 8.5 using a Centriprep 10 ultrafiltration device. The final volume of the exchanged protein was 1.2 mL (OD280 2.6, representing about 2 mg total protein). 10 μL of a 4 mg/ml solution of NHS-LC-Biotin (Pierce) was added and the reaction mixture placed on ice in the dark for two hours. Unreacted biotin was removed by exchange of the reaction buffer into PBS in a Centriprep 10 device and the protein reagent aliquoted and stored at −70° C.
All wells were adjusted to a final DMSO concentration of 5%. […] After all additions were made, the plate was covered with an adhesive top seal and placed in the dark at room temperature overnight. The next day all liquid was aspirated from the wells to limit analyte dependent quench of the signal, and the plates were counted on a Packard TOPCOUNT Microplate Scintillation Counter. […] Corrected total binding (CTB) was calculated as: TB−NSB=CTB. […] Table 1 lists the average % inhibition, and if determined the IC50 and IC30 values for compounds of Formula I, where the compound numbers refer to the compounds in the tables accompanying the preparative examples.

SMILES | EPO/EBP-Ig % inh @ 50 μM (Table 3, 50 μM) [%] | EPO/EBP-Ig % inh @ 50 μM (Table 4, 50 μM) [%] | other results
N=C(N)NCCCC(C(=O)O)N(CC=Cc1cccs1)CC=Cc1cccs1 (centres unmarked) [compound 49] | 1 | – | –
O=C(O)CCC(C(=O)O)N(CC=Cc1cccs1)CC=Cc1cccs1 (centres unmarked) [compound 52] | 21 | – | –
O=C(O)CC(C(=O)O)N(CC=Cc1cccs1)CC=Cc1cccs1 (centres unmarked) [compound 53] | 14 | – | –
CC(C(=O)O)N(CC=Cc1cccs1)CC=Cc1cccs1 (centres unmarked) [compound 54] | 18 | – | –
NC(=O)CCC(C(=O)O)N(CC=Cc1cccs1)CC=Cc1cccs1 (centres unmarked) [compound 55] | 4 | – | –
O=C(NCCCCC(C(=O)OCc1ccccc1)N(CC=Cc1cccs1)CC=Cc1cccs1)OCc1ccccc1 (centres unmarked) [compound 57] | 0 | – | –
COC(=O)C(CCC(=O)OC(C)(C)C)N(CC=Cc1cccs1)CC=Cc1cccs1 (centres unmarked) [compound 59] | 26 | – | –
CCOC(=O)CCC(C(=O)OC)N(C/C=C/c1cccs1)C/C=C/c1cccs1 (centres unmarked) [compound 60] | 9 | – | –
COC(=O)C(CCC(=O)O)N(C/C=C/c1cccs1)C/C=C/c1cccs1 (centres unmarked) [compound 61] | 14 | – | –
O=C(O)CC(C(=O)O)N(Cc1cccc(NCc2ccccc2)c1)Cc1cccc(Oc2ccccc2)c1 (centres unmarked) [compound 63] | – | 20 | –
Cc1ccc(S(=O)(=O)Nc2cccc(CN(Cc3cccc(NS(=O)(=O)c4ccc(C)cc4)c3)C(CC(=O)O)C(=O)O)c2)cc1 (centres unmarked) [compound 65] | – | −7 | –
O=C(O)CC(C(=O)O)N(Cc1cccc(NCc2cccc(Cl)c2)c1)Cc1cccc(Oc2ccccc2)c1 (centres unmarked) [compound 66] | – | −16 | –
O=C(O)CC(C(=O)O)N(Cc1cccc(NCc2cccc(Br)c2)c1)Cc1cccc(Oc2ccccc2)c1 (centres unmarked) [compound 67] | – | −8 | –
O=C(O)CC(C(=O)O)N(Cc1cccc(NCc2ccccc2F)c1)Cc1cccc(Oc2ccccc2)c1 (centres unmarked) [compound 68] | – | −13 | –
Cc1ccccc1CNc1cccc(CN(Cc2cccc(Oc3ccccc3)c2)C(CC(=O)O)C(=O)O)c1 (centres unmarked) [compound 69] | – | −13 | –
O=C(O)CC(C(=O)O)N(Cc1cccc(NCc2ccc(F)cc2)c1)Cc1cccc(Oc2ccccc2)c1 (centres unmarked) [compound 70] | – | −8 | –
Cc1ccc(Oc2cccc(CN(Cc3cccc(NCc4cccc(Cl)c4)c3)C(CC(=O)O)C(=O)O)c2)cc1 (centres unmarked) [compound 71] | – | −6 | –
Cc1ccc(Oc2cccc(CN(Cc3cccc(NCc4c(F)c(F)c(F)c(F)c4F)c3)C(CC(=O)O)C(=O)O)c2)cc1 (centres unmarked) [compound 72] | – | −14 | –
Cc1ccc(Oc2cccc(CN(Cc3cccc(NCc4ccccc4F)c3)C(CC(=O)O)C(=O)O)c2)cc1 (centres unmarked) [compound 73] | – | −13 | –
Cc1ccc(Oc2cccc(CN(Cc3cccc(NCc4cccc(C#N)c4)c3)C(CC(=O)O)C(=O)O)c2)cc1 (centres unmarked) [compound 74] | – | −7 | –
Cc1ccc(Oc2cccc(CN(Cc3cccc(NCc4ccccc4)c3)C(CC(=O)O)C(=O)O)c2)cc1 (centres unmarked) [compound 75] | – | −2 | –
CC(C)(C)OC(=O)CC(C(=O)OC(C)(C)C)N(C/C=C/c1cccc(Oc2ccccc2)c1)Cc1cccc(Oc2ccccc2)c1 (centres unmarked) [compound 76] | – | – | EPO/EBP-Ig % inh @ 50 μM (Table 5, 50 μM): 25%
O=C(O)CC(C(=O)O)N(C/C=C/c1cccc(Oc2ccccc2)c1)Cc1cccc(Oc2ccccc2)c1 (centres unmarked) [compound 77] | – | – | IC50: 40 µM; IC30 μM (Inhibition of EPO binding to EBP-Ig) (0.5 nM [125I]EPO, 0–500 μM test compound): 30 µM; inhibition at 50 µM (read-out: % inh @ 50 μM (Inhibition of EPO binding to EBP-Ig)): 52%; inhibition at 50 µM (read-out: EPO/EBP-Ig % inh @ 50 μM, Table 5, 50 μM): 52%
